System: HepG2
Experiment: Cytotoxicity against human HepG2 cells assessed as growth inhibition at 10 uM after 24 to 48 hrs by MTT assay relative to control
Assay type: functional
Details: read-out: GI

SMILES | inhibition of growth at 10 µM [%]
N#Cc1ccc(S(=O)(=O)N(c2ccccc2)c2ccnc3ccc(-c4ccc(O)cc4)cc23)cc1 | 1

System: HL-60
Experiment: cells
Details: Homo sapiens, HL-60, 48 h
Description: Cytotoxicity against human HL60 cells assessed as inhibition of cell proliferation after 48 hrs by MTT assay

SMILES | IC50 [µM]
N#Cc1ccc(S(=O)(=O)N(c2ccccc2)c2ccnc3ccc(-c4ccc(O)cc4)cc23)cc1 | 58

System: HCT-116
Experiment: Cytotoxicity against human HCT116 cells assessed as growth inhibition at 100 uM after 24 to 48 hrs by MTT assay relative to control
Assay type: functional
Details: read-out: GI

SMILES | inhibition of growth at 100 µM [%]
N#Cc1ccc(S(=O)(=O)N(c2ccccc2)c2ccnc3ccc(-c4ccc(O)cc4)cc23)cc1 | 36

System: HepG2
Experiment: Cytotoxicity against human HepG2 cells assessed as growth inhibition at 30 uM after 24 to 48 hrs by MTT assay relative to control
Assay type: functional
Details: read-out: GI

SMILES | inhibition of growth at 30 µM [%]
N#Cc1ccc(S(=O)(=O)N(c2ccccc2)c2ccnc3ccc(-c4ccc(O)cc4)cc23)cc1 | 1

System: HCT-116
Experiment: Cytotoxicity against human HCT116 cells assessed as growth inhibition at 30 uM after 24 to 48 hrs by MTT assay relative to control
Assay type: functional
Details: read-out: GI

SMILES | inhibition of growth at 30 µM [%]
N#Cc1ccc(S(=O)(=O)N(c2ccccc2)c2ccnc3ccc(-c4ccc(O)cc4)cc23)cc1 | 21

System: PC-3
Experiment: Cytotoxicity against human PC3 cells assessed as growth inhibition at 10 uM after 24 to 48 hrs by MTT assay relative to control
Assay type: functional
Details: read-out: GI

SMILES | inhibition of growth at 10 µM [%]
N#Cc1ccc(S(=O)(=O)N(c2ccccc2)c2ccnc3ccc(-c4ccc(O)cc4)cc23)cc1 | 9

System: PC-3
Experiment: Cytotoxicity against human PC3 cells assessed as growth inhibition at 100 uM after 24 to 48 hrs by MTT assay relative to control
Assay type: functional
Details: read-out: GI

SMILES | inhibition of growth at 100 µM [%]
N#Cc1ccc(S(=O)(=O)N(c2ccccc2)c2ccnc3ccc(-c4ccc(O)cc4)cc23)cc1 | 19

System: not listed separately
Experiment: cells
Details: Homo sapiens, MIA PaCa-2, 48 h
Description: Cytotoxicity against human MIAPaCa2 cells assessed as inhibition of cell proliferation after 48 hrs by MTT assay

SMILES | IC50 [µM]
N#Cc1ccc(S(=O)(=O)N(c2ccccc2)c2ccnc3ccc(-c4ccc(O)cc4)cc23)cc1 | 78

System: HL-60
Experiment: Cytotoxicity against human HL60 cells assessed as growth inhibition at 100 uM after 24 to 48 hrs by MTT assay relative to control
Assay type: functional
Details: read-out: GI

SMILES | inhibition of growth at 100 µM [%]
N#Cc1ccc(S(=O)(=O)N(c2ccccc2)c2ccnc3ccc(-c4ccc(O)cc4)cc23)cc1 | 78

System: HL-60
Experiment: Cytotoxicity against human HL60 cells assessed as growth inhibition at 30 uM after 24 to 48 hrs by MTT assay relative to control
Assay type: functional
Details: read-out: GI

SMILES | inhibition of growth at 30 µM [%]
N#Cc1ccc(S(=O)(=O)N(c2ccccc2)c2ccnc3ccc(-c4ccc(O)cc4)cc23)cc1 | 30

System: HL-60
Experiment: Cytotoxicity against human HL60 cells assessed as growth inhibition at 10 uM after 24 to 48 hrs by MTT assay relative to control
Assay type: functional
Details: read-out: GI

SMILES | inhibition of growth at 10 µM [%]
N#Cc1ccc(S(=O)(=O)N(c2ccccc2)c2ccnc3ccc(-c4ccc(O)cc4)cc23)cc1 | 12

System: PC-3
Experiment: cells
Details: Homo sapiens, PC-3, 48 h
Description: Cytotoxicity against human PC3 cells assessed as inhibition of cell proliferation after 48 hrs by MTT assay

SMILES | IC50 [µM]
N#Cc1ccc(S(=O)(=O)N(c2ccccc2)c2ccnc3ccc(-c4ccc(O)cc4)cc23)cc1 | > 100

System: not listed separately
Experiment: Cytotoxicity against human MIAPaCa2 cells assessed as growth inhibition at 30 uM after 24 to 48 hrs by MTT assay relative to control
Assay type: functional
Details: MIA PaCa-2, read-out: GI

SMILES | inhibition of growth at 30 µM [%]
N#Cc1ccc(S(=O)(=O)N(c2ccccc2)c2ccnc3ccc(-c4ccc(O)cc4)cc23)cc1 | 21

System: HepG2
Experiment: cells
Details: Homo sapiens, HepG2, 48 h
Description: Cytotoxicity against human HepG2 cells assessed as inhibition of cell proliferation after 48 hrs by MTT assay

SMILES | IC50 [µM]
N#Cc1ccc(S(=O)(=O)N(c2ccccc2)c2ccnc3ccc(-c4ccc(O)cc4)cc23)cc1 | > 100

System: HepG2
Experiment: Cytotoxicity against human HepG2 cells assessed as growth inhibition at 100 uM after 24 to 48 hrs by MTT assay relative to control
Assay type: functional
Details: read-out: GI

SMILES | inhibition of growth at 100 µM [%]
N#Cc1ccc(S(=O)(=O)N(c2ccccc2)c2ccnc3ccc(-c4ccc(O)cc4)cc23)cc1 | 34

System: not listed separately
Experiment: Cytotoxicity against human MIAPaCa2 cells assessed as growth inhibition at 100 uM after 24 to 48 hrs by MTT assay relative to control
Assay type: functional
Details: MIA PaCa-2, read-out: GI

SMILES | inhibition of growth at 100 µM [%]
N#Cc1ccc(S(=O)(=O)N(c2ccccc2)c2ccnc3ccc(-c4ccc(O)cc4)cc23)cc1 | 64

System: PC-3
Experiment: Cytotoxicity against human PC3 cells assessed as growth inhibition at 30 uM after 24 to 48 hrs by MTT assay relative to control
Assay type: functional
Details: read-out: GI

SMILES | inhibition of growth at 30 µM [%]
N#Cc1ccc(S(=O)(=O)N(c2ccccc2)c2ccnc3ccc(-c4ccc(O)cc4)cc23)cc1 | 10

System: HCT-116
Experiment: cells
Details: Homo sapiens, HCT-116, 48 h
Description: Cytotoxicity against human HCT116 cells assessed as inhibition of cell proliferation after 48 hrs by MTT assay

SMILES | IC50 [µM]
N#Cc1ccc(S(=O)(=O)N(c2ccccc2)c2ccnc3ccc(-c4ccc(O)cc4)cc23)cc1 | > 100

System: HCT-116
Experiment: Cytotoxicity against human HCT116 cells assessed as growth inhibition at 10 uM after 24 to 48 hrs by MTT assay relative to control
Assay type: functional
Details: read-out: GI

SMILES | inhibition of growth at 10 µM [%]
N#Cc1ccc(S(=O)(=O)N(c2ccccc2)c2ccnc3ccc(-c4ccc(O)cc4)cc23)cc1 | 5

System: not listed separately
Experiment: Cytotoxicity against human MIAPaCa2 cells assessed as growth inhibition at 10 uM after 24 to 48 hrs by MTT assay relative to control
Assay type: functional
Details: MIA PaCa-2, read-out: GI

SMILES | inhibition of growth at 10 µM [%]
N#Cc1ccc(S(=O)(=O)N(c2ccccc2)c2ccnc3ccc(-c4ccc(O)cc4)cc23)cc1 | 16
